Publication PMC5816602, “Optimized peptide based inhibitors targeting the dihydrofolate reductase pathway in cancer” (Scientific Reports, 2018)
pIC50: −log10 of the molar value. ≈ marks a conversion by molar mass, not a printed value. Like-named read-outs stand apart in the source and are kept apart here. Residues, ends and D or L forms follow the SMILES beside them.

How the values were obtained:
[1] = biological target: T1, hDHFR (Homo sapiens, UniProt P00374); experiment: In vitro DHFR inhibition assay (DHFR assay kit, absorbance at 340 nm); assay type: biochemical
T1 construct: purchased Sigma CS0340
T1 sequence (P00374 1-187): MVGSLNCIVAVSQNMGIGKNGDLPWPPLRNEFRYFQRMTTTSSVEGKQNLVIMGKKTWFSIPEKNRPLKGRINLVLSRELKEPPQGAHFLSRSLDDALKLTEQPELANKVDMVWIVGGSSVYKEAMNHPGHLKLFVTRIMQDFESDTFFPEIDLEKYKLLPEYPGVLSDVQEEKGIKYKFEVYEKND
Method: The activity of the designed peptides against hDHFR was evaluated by measuring the conversion of dihydrofolic acid to tetrahydrofolic acid in the presence of the test peptide using […].
The dihydrofolate reductase inhibition assay was performed using DHFR assay kit (Sigma product code CS0340) according to the reported protocol. All the dilutions were made in assay buffer, pH 7.5. 10 mM stock solutions of dihydrofolic acid and NADPH in assay buffer were prepared. Stock solutions of the test peptides with different concentrations were prepared in DMSO, and an amount of 20 μL of each was taken to attain final concentration of 10^−9, 10^−8, 10^−7, 10^−6, 10^−5, and 10^−4 M in the respective wells of 96-well plate containing assay buffer. An amount of 0.1 unit of DHFR as supplied in the kit was diluted, and an amount of 20 μL of its 3 × 10^−3 unit was used in each reaction. Each well of the 96-well plate was charged with 157.8 μL of assay buffer. […] Percentage inhibition of enzymatic activity was calculated after nullifying the effects of NADPH, folate, and solvent. IC50 was calculated by plotting a graph between percentage inhibition and the corresponding concentration of the peptide.

[2] = system: A549 cells; settings: 48 hrs, MTT; for effect on cell viability of A549 cells: increasing concentrations
Method: Cell viability was measured using 3-(4,5-Dimethylthiazol- 2-yl)-2,5- Diphenyltetrazolium Bromide (MTT) assay. […] Following that, 20 µL of 5 mg/ml of MTT reagent was added in a total volume of 200 µl and incubated for 2 hours. The culture media was removed and the formazan crystals so formed were dissolved in 200 µl of dimethyl sulfoxide (DMSO). Absorbance was measured at 570 nm (with 660 nm reference wavelength) using Tecan plate reader (Infinite M200 Pro). Each individual experiment was repeated at least thrice. Relative cell viability was expressed as a percentage relative to untreated control cells.

[3] = biological target: T1, hDHFR; experiment: Isothermal titration calorimetry (ITC); assay type: binding; settings: Table 2, read-out: Ka (converted)
From the text: The binding of peptide 2 with hDHFR was further determined using isothermal titration calorimetry (ITC). ITC is considered as one of the most precise techniques to measure the affinity between a macromolecule and a small molecule. Since it measures the heat absorbed or released during complexation, it allows simultaneous determination of all binding parameters with respect to the binding constant (K), enthalpy (ΔH), and entropy (ΔS) in a single experiment. The solution of peptide 2 (in the syringe) was injected into the DHFR enzyme solution taken in the sample cell. In one experiment, 20 consecutive injections of 2 μL of 250 μM peptide were given to the sample cell. Upon each titration, the amount of heat released or absorbed was measured and used to determine the association constant (Ka), binding enthalpy (ΔH), and entropy (ΔS).

[4] = six concentrations 10^−4 to 10^−9 M, assay buffer pH 7.5, read-out: IC50 against hDHFR

| Compound | pIC50 [1, 4] | pIC50 [1] | other results |
| --- | --- | --- | --- |
| CSCC[C@H](NC(=O)[C@@H](N)Cc1ccccc1)C(=O)N[C@@H](Cc1ccc(O)cc1)C(=O)N[C@@H](CC(C)C)C(=O)NCC(=O)O [Peptide 8, Phe-Met-Tyr-Leu-Gly] (H-FMYLG-OH) | < 4.00 |  |  |
| CSCC[C@H](N)C(=O)N[C@@H](Cc1ccccc1)C(=O)N[C@@H](Cc1ccc(O)cc1)C(=O)NCC(=O)O [Peptide 4, Met-Phe-Tyr-Gly] (H-MFYG-OH; N-terminus assumed) | < 4.05 |  | effect on cell viability of A549 cells [2]: did not affect their cell viability |
| CSCC[C@H](NC(=O)[C@H](Cc1ccc(O)cc1)NC(=O)[C@@H](N)Cc1ccccc1)C(=O)NCC(=O)O [Peptide 3, Phe-Tyr-Met-Gly] (H-FYMG-OH; N-terminus assumed) | 5.25 |  | effect on cell viability of A549 cells [2]: did not affect their cell viability |
| CSCC[C@H](NC(=O)[C@H](Cc1ccc(O)cc1)NC(=O)[C@@H](N)Cc1ccccc1)C(=O)NCC(=O)N[C@@H](CC(C)C)C(=O)O [Peptide 9, Phe-Tyr-Met-Gly-Leu] (H-FYMGL-OH) |  | < 4.10 |  |
| CSCC[C@H](NC(=O)[C@H](Cc1ccccc1)NC(=O)[C@@H](N)Cc1ccc(O)cc1)C(=O)N[C@@H](CC(C)C)C(=O)O [Peptide 1, Tyr-Phe-Met-Leu] (H-YFML-OH; N-terminus assumed) |  | < 4.00 |  |
| CSCC[C@H](NC(=O)[C@H](Cc1ccccc1)NC(=O)[C@H](CO)NC(=O)[C@@H](N)Cc1ccc(O)cc1)C(=O)N[C@@H](CC(C)C)C(=O)O [Peptide 11, Tyr-Ser-Phe-Met-Leu] (H-YSFML-OH) |  | 7.10 |  |
| CSCC[C@H](N)C(=O)N[C@@H](Cc1ccccc1)C(=O)N[C@@H](Cc1ccc(O)cc1)C(=O)NCC(=O)N[C@@H](CC(C)C)C(=O)O [Peptide 10, Met-Phe-Tyr-Gly-Leu] (H-MFYGL-OH) | < 4.00 |  |  |
| CSCC[C@H](NC(=O)[C@@H](N)Cc1ccc(O)cc1)C(=O)N[C@@H](CO)C(=O)N[C@@H](CC(C)C)C(=O)O [Peptide 5, Tyr-Met-Ser-Leu] (H-YMSL-OH; N-terminus assumed) |  | < 4.00 |  |
| CSCC[C@H](NC(=O)[C@@H](N)Cc1ccc(O)cc1)C(=O)N[C@@H](Cc1ccccc1)C(=O)N[C@@H](CO)C(=O)N[C@@H](CC(C)C)C(=O)O [Peptide 12, Tyr-Met-Phe-Ser-Leu] (H-YMFSL-OH) |  | < 4.05 |  |
| CSCC[C@H](NC(=O)[C@H](Cc1ccccc1)NC(=O)[C@@H](N)Cc1ccc(O)cc1)C(=O)N[C@@H](CC(C)C)C(=O)NCC(=O)O [Peptide 7, Tyr-Phe-Met-Leu-Gly] (H-YFMLG-OH) |  | < 4.00 |  |
| CSCC[C@H](NC(=O)[C@@H](N)Cc1ccccc1)C(=O)N[C@@H](Cc1ccc(O)cc1)C(=O)N[C@@H](CC(C)C)C(=O)O [Peptide 2, Phe-Met-Tyr-Leu] (H-FMYL-OH) | 6.89 |  | Kd [3]: 0.909 µM; IC50 in A549 cells [2]: 47 µg/mL (≈ 82.1 µM); pIC50 ([2]; read-out: IC50 in A549 cells): 4.09 |
| CSCC[C@H](N)C(=O)N[C@@H](Cc1ccc(O)cc1)C(=O)N[C@@H](CO)C(=O)N[C@@H](CC(C)C)C(=O)O [Peptide 6, Met-Tyr-Ser-Leu] (H-MYSL-OH; N-terminus assumed) | 5.10 |  |  |
